# According to US20070225252A1, “Ketogenic Saccharides” (priority 2004, published 2007):
# Assay: Ketogenesis in rats in vivo (plasma (R)-3-hydroxybutyrate after oral gavage)
# Set-up: species or system Male Sprague-Dawley rats
# Conditions: rat, ANOVA/Dunnett P<0.05
# Method: Male Sprague-Dawley rats (weight range 200-250 g Charles River, Margate, Kent) were group housed in polypropylene cages at a temperature of 21±4° C. and 55±20% humidity and on a standard light/dark cycle. Animals had free access to a standard pelleted rat diet and tap water at all times. Animals were accustomed to these conditions for at least one week before experimentation.
# Compounds were administered by oral gavage (po). Control animals received the appropriate vehicle via the same route. The experiment was performed over 2 days (ie 2 compounds were tested per day). Blood samples were taken by cardiac puncture after the animals were killed by a British Home Office Schedule 1 method. The terminal blood sample was collected into suitable plasma preparation tubes (EDTA-coated tubes). Plasma samples were initially frozen on dry ice and transferred to a −75° C. freezer until required for subsequent analysis (spectrophotometric analysis of (R)-3-hydroxybutyrate).
# Sodium DL-β-hydroxybutyrate (H-6501 Lot 111K2618) was obtained from Sigma A stock solution of β-hydroxybutyrate (40 mM DL racemate equivalent to 20 mM D-isomer) was prepared in 0.9% saline solution, kept at 4° C. and used to generate appropriate dilutions for an assay standard curve.
# Commercial clinical assay kits for the determination of D-β-hydroxybutyrate were obtained from Randox Laboratories (Antrim, UK). Kits were obtained in two pack sizes (Ranbut RB1007: 10×10 ml and RB1008: 10×50 ml) but were otherwise identical. […] The kit relies on measuring the appearance of NADH via the activity of β-hydroxybutyrate dehydrogenase measured as an increase of OD340 nm. […]
# The protocol supplied with the Ranbut kits was for a discrete (cuvette-based) spectrophotometzic assay, so the protocol was modified for suitability with a 96-well microplate format using blank, flat-bottomed microplates (Greiner PS 655101 Lot 98 35 01). […] Standard dilutions and samples were pipetted a single plate at a time and preincubated at 37° C. for 15 minutes in the sample compartment of a Molecular Devices VERSAmax tunable microplate reader: The appropriate volume of assay reagent was reconstituted, according to instructions, using distilled water and preincubated at 37° C. for 15 minutes using a static water bath. […] The plate was reloaded, mixed and then the change in OD340 nm followed in kinetic mode with a reading at every 15 seconds for a total of 2 minutes. The reaction rate was then determined from the OD increase over a suitable 1 minute period, after allowing a necessary period for the reaction rate to settle. The rate between 45 seconds and 105 seconds was used as the default measuring period, though occasionally a different period was used as necessary (eg if an aberrant reading was obtained at one of these time-points). […]
substance,measurement,setting,value
sorbitol 3-hydroxybutyrate tri-ester [KTX 0313],increases in plasma 3-hydroxybutyrate concentrations (ketogenesis),"300 mg/kg po, blood sampling 30, 120, 240 min vs vehicle baseline",significant increases
glucose (R)-3-hydroxybutyrate ester [KTX 0310],increases in plasma 3-hydroxybutyrate concentrations (ketogenesis),"440 mg/kg po, blood sampling 30, 120, 240 min vs vehicle",did not evoke significant ketogenesis
arabinose (R)-3-hydroxybutyrate ester [KTX 0312],increases in plasma 3-hydroxybutyrate concentrations (ketogenesis),"351 mg/kg po, blood sampling 30, 120, 240 min vs vehicle",did not evoke significant ketogenesis
fructose (R)-3-hydroxybutyrate ester [KTX 0311],increases in plasma 3-hydroxybutyrate concentrations (ketogenesis),"441 mg/kg po, blood sampling 30, 120, 240 min vs vehicle baseline",significant increases
